Entries after “also recorded” stand apart in the source; their conditions may differ. Values belong to the molecule of their own block, whether it stands above or below them.
Legend:
[1] = molecular target: T1, TrkB (Rattus norvegicus, UniProt Q63604); test: TrkB phosphorylation, western blot, primary rat cortical neuronal culture; assay type: cell-based; design: key: “+”=increased phosphorylation; “−”=decreased phosphorylation; “nc”=no change
T1 construct: in primary cultures of rat cortical neurons; endogenous in cells; host or cells: primary rat cortical neurons
T1 sequence (Q63604 32-821): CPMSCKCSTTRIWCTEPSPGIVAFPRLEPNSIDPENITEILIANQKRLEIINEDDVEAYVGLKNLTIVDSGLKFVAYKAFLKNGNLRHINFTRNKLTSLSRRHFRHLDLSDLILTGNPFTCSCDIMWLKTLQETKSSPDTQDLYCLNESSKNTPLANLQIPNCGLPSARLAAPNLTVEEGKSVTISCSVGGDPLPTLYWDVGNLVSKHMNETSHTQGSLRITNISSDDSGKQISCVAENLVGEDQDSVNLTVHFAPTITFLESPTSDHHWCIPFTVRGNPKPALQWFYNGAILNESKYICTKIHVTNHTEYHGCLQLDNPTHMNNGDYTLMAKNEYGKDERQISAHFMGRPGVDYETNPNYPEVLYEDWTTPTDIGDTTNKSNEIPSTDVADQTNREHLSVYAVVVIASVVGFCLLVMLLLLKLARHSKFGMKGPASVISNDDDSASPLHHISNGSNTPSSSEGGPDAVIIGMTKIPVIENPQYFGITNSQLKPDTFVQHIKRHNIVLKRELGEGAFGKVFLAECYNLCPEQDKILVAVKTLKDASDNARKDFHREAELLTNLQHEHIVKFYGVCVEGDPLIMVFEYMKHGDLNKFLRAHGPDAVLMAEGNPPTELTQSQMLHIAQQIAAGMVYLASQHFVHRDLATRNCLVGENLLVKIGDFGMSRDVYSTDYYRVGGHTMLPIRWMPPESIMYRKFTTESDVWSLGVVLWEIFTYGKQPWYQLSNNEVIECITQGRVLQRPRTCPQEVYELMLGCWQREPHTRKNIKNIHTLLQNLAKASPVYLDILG
Experimental: (§1) Different concentrations of 2-fluoro-N-(2-(5-hydroxy-1H-indol-3-yl)ethyl)nicotinamide (analogue 147) were tested in NIH-3T3-TrkB cells. Cells at 70-80% confluency were serum deprived overnight and then stimulated with different concentrations of analogue 147 for 30 minutes. Protein extract was collected and subjected for western blot analysis. […] “+”=increased phosphorylation; “−”=decreased phosphorylation; “nc”=no change.
(§2) To screen the analogs for biological activity, the phosphorylation state of TrkB and AKT, a downstream signaling mediator of TrkB activation, was examined in cultured NIH/3T3 cells expressing human TrkB and in primary cultures of rat cortical neurons (see FIG. 5).

[2] = tested on: AKT; test: AKT phosphorylation, western blot, primary rat cortical neuronal culture; assay type: cell-based; design: key: “+”=increased phosphorylation; “−”=decreased phosphorylation; “nc”=no change
Experimental: as §1, §2

[3] = tested on: AKT; test: AKT phosphorylation, western blot, NIH 3T3 cells expressing human TrkB; assay type: cell-based; design: key: “+”=increased phosphorylation; “−”=decreased phosphorylation; “nc”=no change; settings: NIH 3T3 - TrkB cells
Experimental: as §1, §2

[4] = molecular target: T2, TrkB (Homo sapiens, UniProt Q16620); test: TrkB phosphorylation, western blot, NIH 3T3 cells expressing human TrkB; assay type: cell-based; design: expressed in transfected cells; host or cells: NIH/3T3 (NIH-3T3-TrkB) cells; key to pTrkB/β-actin: “+”=increased phosphorylation; “−”=decreased phosphorylation; “nc”=no change; settings: for pTrkB/β-actin: NIH 3T3 - TrkB cells, western blot; for concentration of best TrkB activation / TrkB activation, concentration dependence: NIH-3T3-TrkB cells, stimulated 30 minutes; for concentration of best TrkB activation: serum deprived overnight
Experimental: as §1, §2
Target sequence in this assay (Q16620 32-822): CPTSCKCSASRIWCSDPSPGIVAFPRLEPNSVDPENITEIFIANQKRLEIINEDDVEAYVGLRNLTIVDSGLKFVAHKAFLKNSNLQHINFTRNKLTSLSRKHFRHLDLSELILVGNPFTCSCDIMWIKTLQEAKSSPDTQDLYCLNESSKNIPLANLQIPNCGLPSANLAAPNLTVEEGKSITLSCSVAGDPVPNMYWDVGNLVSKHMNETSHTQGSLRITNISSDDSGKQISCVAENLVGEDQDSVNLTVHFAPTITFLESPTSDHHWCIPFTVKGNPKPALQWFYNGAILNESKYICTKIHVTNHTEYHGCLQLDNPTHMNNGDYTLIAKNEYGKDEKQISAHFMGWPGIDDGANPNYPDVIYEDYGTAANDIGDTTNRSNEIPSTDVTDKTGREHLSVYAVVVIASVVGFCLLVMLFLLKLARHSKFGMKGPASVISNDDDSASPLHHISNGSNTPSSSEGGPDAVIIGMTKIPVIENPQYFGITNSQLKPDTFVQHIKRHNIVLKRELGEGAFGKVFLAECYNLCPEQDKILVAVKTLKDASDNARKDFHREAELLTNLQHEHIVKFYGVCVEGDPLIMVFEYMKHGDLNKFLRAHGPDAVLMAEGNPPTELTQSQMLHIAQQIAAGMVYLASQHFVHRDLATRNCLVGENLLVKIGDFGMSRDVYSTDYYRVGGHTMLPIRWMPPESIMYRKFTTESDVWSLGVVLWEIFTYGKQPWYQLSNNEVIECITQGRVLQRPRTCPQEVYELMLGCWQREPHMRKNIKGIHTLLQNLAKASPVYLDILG

[5] = molecular target: T2, TrkB; settings: cited from earlier work
Target sequence in this assay (Q16620 32-822, species assumed): as the sequence (Q16620 32-822) above

[6] = tested on: blast-induced loss of visual function; test: Mouse blast injury (TBI) model, loss of visual function; assay type: in vivo
Experimental: Mice were exposed to a single 70 psi blast directed at the right side of the head. HIOC or vehicle was administered 15 minutes after exposure to blast, and daily for the next six days. A sham control group was included for comparison. Visual function was tested 1 week after blast.
(§3) This disclosure contemplates pharmaceutical treatments for trauma-induced vision loss that can be administered on the battlefield or in field hospitals during the critical period before irreversible neuronal degeneration and vision loss occur. A mouse blast injury model has been used to characterize the effects of blast injury to the eye and visual system. Blast injury results in (1) inflammatory responses (microglial activation and reactive gliosis) and activation of the innate and acquired immune system; (2) loss of visual function (contrast sensitivity and visual acuity); (3) thinning of the nerve fiber layer of the retina, and (4) axon loss in the optic nerve. An N-acetylserotonin derivative, N-[2-(5-hydroxy-1H-indol-3-yl)ethyl]-2-oxopiperidine-3-carboxamide (HIOC), effectively mitigates vision loss when administered within several hours after blast exposure (FIG. 1). Daily administration for one week reduces or prevents blast-induced loss of visual function for at least 4 months, mitigating the progressive vision loss that occurs over time in the absence of treatment. This therapeutic effect of HIOC is mediated by activation of TrkB, the cognate receptor for Brain-Derived Neurotrophic Factor (BDNF). Both N-acetylserotonin and HIOC activate TrkB and have neuroprotective properties. The pharmacokinetic characteristics of HIOC are desirable for an in vivo treatment because TrkB is activated for up to 16 hours following a single injection.
The ability of HIOC to mitigate the loss of visual function resulting from blast directed at the head was examined (FIG. 1). Mice were exposed to a single blast of ˜70 psi directed on the right side of the head. Contrast sensitivity was measured 1 week after blast.

[7] = molecular target: T3, TrkB (Mus musculus, UniProt P15209); test: TrkB activation in retina and brain after systemic administration; assay type: in vivo
T3 construct: from tissue; host or cells: retina (ganglion cells) and brain
T3 sequence (P15209 32-821): as the sequence (Q63604 32-821) above, with M3T, T9S, T10A, I32V, K63R, G84S, T153M, I185L, T394S, N770S counted along it
Description: as §3, with “The pharmacokinetic characteristics of HIOC are desirable for an in vivo treatment because TrkB is activated for up to 16 hours following a single injection.” left out

[8] = tested on: kainic acid-induced neuronal cell death; settings: TrkB-dependent; cited from earlier work
[9] = tested on: photoreceptor damage; settings: cited from earlier work
[10] = tested on: brain damage from subarachnoid hemorrhage; settings: cited from earlier work

Molecule: O=C(NCCc1c[nH]c2ccc(O)cc12)c1ccccc1 [Analogue 83, N-(2-(5-hydroxy-1H-indol-32-yl)ethyl)benzamide]
pTrkB/β-actin [1]: +
pAkt/β-actin [2]: +
pAkt/β-actin [3]: +
pTrkB/β-actin [4]: +

Molecule: COc1ccc2[nH]cc(CCNC(=O)C3CCCNC3=O)c2c1 (stereo not shown) [Analogue 149, N-(2-(5-methoxy-1H-indol-3-yl)ethyl)-2-oxopiperidine-3-carboxamide]
pTrkB/β-actin [1]: +
pAkt/β-actin [2]: +
pAkt/β-actin [3]: +
pTrkB/β-actin [4]: −

Molecule: O=C(NCCc1c[nH]c2ccc(O)cc12)c1cncc(F)c1 [Analogue 127, 5-Fluoro-N-(2-(5-hydroxy-1H-indol-3-yl)ethyl)nicotinamide]
pTrkB/β-actin [1]: +
pAkt/β-actin [2]: +
pAkt/β-actin [3]: −
pTrkB/β-actin [4]: +
concentration of best TrkB activation [4]: 100 nM
TrkB activation, concentration dependence [4]: higher activity at low nanomolar concentrations than at 1 μM

Molecule: CC(=O)NCCc1c[nH]c2ccc(O)cc12 [N-acetylserotonin]
TrkB activation [5]: activate TrkB

Molecule: O=C(NCCc1c[nH]c2ccc(O)cc12)c1ccccn1 [Analogue 105, N-(2-(5-hydroxy-1H-indol-3yl)ethyl)picolinamide]
pTrkB/β-actin [1]: +
pAkt/β-actin [2]: +
pAkt/β-actin [3]: +
pTrkB/β-actin [4]: −

Molecule: O=C1NCCCC1C(=O)NCCc1c[nH]c2ccc(O)cc12 (stereo not shown) [HIOC, N-[2-(5-hydroxy-1H-indol-3-yl)ethyl]-2-oxopiperidine-3-carboxamide]
pTrkB/β-actin [1]: +
pAkt/β-actin [2]: +
pAkt/β-actin [3]: +
effects on blast-induced retinal and optic nerve damage ([6]; blast exposure): reduces vision loss, microglial activation in the retina, nerve fiber layer thinning, and the optic nerve axon loss
duration of protection from blast-induced loss of visual function ([6]; daily administration for one week): at least 4 months
TBI induced decrease in contrast sensitivity ([6]; mice, single ~70 psi blast, 80 mg/kg, measured 1 week after blast): completely prevented
duration of TrkB activation ([7]; following a single injection): up to 16 hours
blood-retinal and blood-brain barrier penetration ([7]; systemic administration): crosses the blood-retinal and blood-brain barriers
kainic acid-induced neuronal cell death / apoptosis [8]: inhibits neuronal apoptosis; also recorded: reduces kainic acid-induced neuronal cell death
photoreceptor damage from toxic light exposure [9]: reduces photoreceptor damage
brain damage from subarachnoid hemorrhage [10]: attenuates brain damage
TrkB activation [5]: activate TrkB; also recorded: selectively activates TrkB
pTrkB/β-actin [4]: +

Molecule: O=C(NCCc1c[nH]c2ccc(O)cc12)c1ccncc1 [Analogue 107, N-(2-(5-hydroxy-1H-indol-3-yl)ethyl)isonicotinamide]
pTrkB/β-actin [1]: +
pAkt/β-actin [2]: +
pAkt/β-actin [3]: +
pTrkB/β-actin [4]: +

Molecule: O=C(NCCc1c[nH]c2ccc(O)cc12)c1cccnc1F [Analogue 147, 2-fluoro-N-(2-(5-hydroxy-1H-indol-3yl)ethyl)nicotinamide]
pTrkB/β-actin [1]: +
pAkt/β-actin [2]: +
pAkt/β-actin [3]: +
pTrkB/β-actin [4]: +
concentration of best TrkB activation [4]: 10 nM
TrkB activation, concentration dependence [4]: higher activity at low nanomolar concentrations than at 1 μM

Further lines, with some results ahead:

pTrkB/β-actin [1]: nc
Molecule: O=C(NCCc1c[nH]c2ccc(O)cc12)c1ccncc1F [Analogue 114, 3-fluoro-N-(2-(5-hydroxy-1H-indol-3-yl)ethyl)isonicotinamide]
pAkt/β-actin [2]: nc

pTrkB/β-actin [1]: +
pTrkB/β-actin [4]: nc
Molecule: O=C(NCCc1c[nH]c2ccc(O)cc12)c1cccnc1 [Analogue 85, N-(2-(5-hydroxy-1H-indol-3-yl)ethyl)nicotinamide]
pAkt/β-actin [2]: +
pAkt/β-actin [3]: nc

pTrkB/β-actin [1]: +
pTrkB/β-actin [4]: +
Molecule: O=C1NCCCC1C(=O)NCCc1c[nH]c2ccccc12 (stereo not shown) [Analogue 145, N-(2-(1H-indol-3-yl)ethyl)-2-oxopiperidine-3-carboxamide]
pAkt/β-actin [2]: +
pAkt/β-actin [3]: +

pTrkB/β-actin [1]: +
Molecule: CN1CCCC(C(=O)NCCc2c[nH]c3ccc(O)cc23)C1=O (stereo not shown) [Analogue 151, N-(2-(5-hydroxy-1H-indol-3-yl)ethyl)-1-methyl-2-oxopiperidine-3-carboxamide]
pAkt/β-actin [2]: −

pTrkB/β-actin [1]: +
Molecule: O=C(NCCc1c[nH]c2ccc(O)cc12)c1ccc(F)cn1 [Analogue 112, 5-fluoro-N-(2-(5-hydroxy-1H-indol-3yl)ethyl)picolinamide]
pAkt/β-actin [2]: −

pTrkB/β-actin [1]: +
pTrkB/β-actin [4]: +
Molecule: CC1(C(=O)NCCc2c[nH]c3ccc(O)cc23)CCCNC1=O (stereo not shown) [Analogue 170, N-(2-(5-hydroxy-1H-indol-3-yl)ethyl)-3-methyl-2-oxopiperidine-3-carboxamide]
pAkt/β-actin [2]: nc
pAkt/β-actin [3]: +

pTrkB/β-actin [1]: +
pTrkB/β-actin [4]: +
B1: BDNF: Brain-Derived Neurotrophic Factor; TrkB is its cognate receptor (protein, UniProt P23560 19-247, looked up)
Neurotrophic factor BDNF …: APMKEANIRGQGGLAYPGVRTHGTLESVNGPKAGSRGLTSLADTFEHVIEELLDEDQKVRPNEENNKDADLYTSRVMLSSQVPLEPPLLFLLEEYKNYLDAANMSMRVRRHSDPARRGELSVCDSISEWVTAADKKTAVDMSGGTVTVLEKVPVSKGQLKQYFYETKCNPMGYTKEGCRGIDKRHWNSQCRTTQSYVRALTMDSKKRIGWRFIRIDTSCVCTLTIKRGR
pAkt/β-actin [2]: +
pAkt/β-actin [3]: +

— patent US20230174510A1, “N-acetylserotonin Derivatives as TrkB Activators and Uses Thereof” (Emory University, priority 2020, published 2023)
